Reference: ChEMBL document CHEMBL3351222, “Novel multi-targeting anthra[2,3-b]thiophene-5,10-diones with guanidine-containing side chains: interaction with telomeric G-quadruplex, inhibition of telomerase and topoisomerase I and cytotoxic properties” (Eur J Med Chem, 2014)
Calls of active or inactive are those of the source. The rule behind the calls is not given here.

Tests used:
Homo sapiens [1] = species on record: Homo sapiens; experiment: Binding affinity to human telomeric G-quadruplex TelQ22-DA DNA assessed as change in melting temperature by FRET assay
Homo sapiens [2] = species on record: Homo sapiens; experiment: Binding affinity to human telomeric G-quadruplex TelQ22-DA DNA at 65 degC by FRET melting assay
Homo sapiens [3] = species on record: Homo sapiens; experiment: Binding affinity to human telomeric G-quadruplex TelQ24 (5'-d(TTAGGG)4)-3') DNA at 25 degC by fluorescent intercalator displacement assay
Homo sapiens [4] = species on record: Homo sapiens; experiment: Binding affinity to human telomeric G-quadruplex TelQ22-DA DNA assessed as interaction with compound at 25 degC by isothermal titration calorimetry
[5] = biological target: T1, Telomerase reverse transcriptase (Homo sapiens, UniProt O14746); experiment: Inhibition of human telomerase transfected in human HEK293T cells assessed as DNA extension using 5'-d(AATCCGTCGAGCAGAGTT)-3' substrate; assay type: cell-based; conditions: hek-293t
T1 sequence (O14746 whole entry): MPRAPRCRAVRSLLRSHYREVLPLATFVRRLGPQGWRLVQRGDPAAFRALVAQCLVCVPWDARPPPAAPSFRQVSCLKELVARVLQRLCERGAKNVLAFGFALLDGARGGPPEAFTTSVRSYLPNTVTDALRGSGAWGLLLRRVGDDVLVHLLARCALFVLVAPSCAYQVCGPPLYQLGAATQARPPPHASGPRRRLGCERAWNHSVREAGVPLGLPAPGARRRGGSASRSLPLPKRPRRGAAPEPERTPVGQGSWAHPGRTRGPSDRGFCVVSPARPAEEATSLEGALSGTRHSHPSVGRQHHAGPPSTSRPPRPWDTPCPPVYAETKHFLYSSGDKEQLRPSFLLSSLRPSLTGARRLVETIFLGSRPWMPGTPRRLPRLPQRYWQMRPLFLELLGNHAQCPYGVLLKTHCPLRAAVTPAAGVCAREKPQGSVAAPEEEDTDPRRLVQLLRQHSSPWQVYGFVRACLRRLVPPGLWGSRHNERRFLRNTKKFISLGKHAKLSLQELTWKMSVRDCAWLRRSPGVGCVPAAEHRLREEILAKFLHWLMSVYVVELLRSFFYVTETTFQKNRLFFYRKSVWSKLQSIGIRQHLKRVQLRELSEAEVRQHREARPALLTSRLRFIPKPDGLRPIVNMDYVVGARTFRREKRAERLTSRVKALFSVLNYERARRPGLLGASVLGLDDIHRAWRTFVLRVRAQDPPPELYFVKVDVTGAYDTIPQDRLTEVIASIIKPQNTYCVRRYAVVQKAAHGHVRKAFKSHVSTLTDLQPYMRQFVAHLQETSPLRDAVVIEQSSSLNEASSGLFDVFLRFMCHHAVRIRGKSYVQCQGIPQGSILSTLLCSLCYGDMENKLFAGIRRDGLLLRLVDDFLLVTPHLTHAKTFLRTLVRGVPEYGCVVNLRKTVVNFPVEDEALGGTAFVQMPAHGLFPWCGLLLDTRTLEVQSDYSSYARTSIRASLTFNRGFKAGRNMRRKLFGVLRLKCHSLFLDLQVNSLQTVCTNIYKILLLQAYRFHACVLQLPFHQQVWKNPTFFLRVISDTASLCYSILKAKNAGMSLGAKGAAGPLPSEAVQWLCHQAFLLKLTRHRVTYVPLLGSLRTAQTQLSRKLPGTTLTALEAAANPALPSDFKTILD

[6] = biological target: T1, Telomerase reverse transcriptase; experiment: Inhibition of human telomerase transfected in human HEK293T cells assessed as DNA extension using 5'-d(AATCCGTCGAGCAGAGTT)-3' substrate by Real-time quantitative telomeric repeat amplification protocol; assay type: cell-based; conditions: hek-293t
[7] = biological target: T2, DNA topoisomerase 1 (Homo sapiens) (UniProt P11387); experiment: Inhibition of topoisomerase 1 (unknown origin)-mediated relaxation of supercoiled pBR322 at 1 uM after 30 mins by agarose gel electrophoresis
T2 sequence (whole entry): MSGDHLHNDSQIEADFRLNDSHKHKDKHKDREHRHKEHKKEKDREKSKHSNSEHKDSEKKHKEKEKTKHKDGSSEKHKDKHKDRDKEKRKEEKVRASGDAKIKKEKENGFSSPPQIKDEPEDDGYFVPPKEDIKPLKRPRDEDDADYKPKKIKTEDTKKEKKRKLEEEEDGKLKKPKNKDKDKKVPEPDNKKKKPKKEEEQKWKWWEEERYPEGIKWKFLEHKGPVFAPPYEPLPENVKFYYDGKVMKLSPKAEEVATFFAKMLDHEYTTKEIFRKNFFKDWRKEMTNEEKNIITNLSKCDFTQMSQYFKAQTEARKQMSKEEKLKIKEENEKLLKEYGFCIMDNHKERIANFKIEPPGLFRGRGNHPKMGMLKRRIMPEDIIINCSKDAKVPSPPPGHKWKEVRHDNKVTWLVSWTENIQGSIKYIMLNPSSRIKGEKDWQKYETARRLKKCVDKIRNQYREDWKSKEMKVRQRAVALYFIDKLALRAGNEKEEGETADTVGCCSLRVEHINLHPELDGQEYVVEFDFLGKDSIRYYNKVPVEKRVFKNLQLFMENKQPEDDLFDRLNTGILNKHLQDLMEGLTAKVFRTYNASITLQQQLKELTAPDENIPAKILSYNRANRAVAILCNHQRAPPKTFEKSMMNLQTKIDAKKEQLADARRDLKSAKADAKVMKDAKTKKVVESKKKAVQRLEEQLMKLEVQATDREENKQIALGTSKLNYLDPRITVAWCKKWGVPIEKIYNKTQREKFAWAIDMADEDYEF

L1210 [8] = experiment: Cytotoxicity against mouse L1210 cells after 48 hrs by trypan blue assay; assay type: functional, cell-based; conditions: L1210, 48 h
CCRF-CEM = experiment: Cytotoxicity against human CEM cells after 48 hrs by trypan blue assay; assay type: functional, cell-based
L1210 [9] = experiment: Drug uptake in mouse L1210 cells at 1 uM after 15 mins; assay type: ADME, cell-based; conditions: l1210, 0.25 h
L1210 [10] = experiment: Drug uptake in mouse L1210 cells at 1 uM after 3 hrs; assay type: ADME, cell-based; conditions: l1210, 3 h

Structure (SMILES) | ΔTm (Homo sapiens [1]) | Kb (Homo sapiens [2]) | Kb (Homo sapiens [3]) | Kb (Homo sapiens [4]) | IC50 [5] | IC50 [6] | inhibition [7] | IC50 (L1210 [8]) | IC50 (CCRF-CEM) | Drug uptake (L1210 [9]) | Drug uptake (L1210 [10])
CC(=N)NCCNc1c2c(c(NCCNC(C)=N)c3sccc13)C(=O)c1ccccc1C2=O | 7 °C | 2.4 ×10⁶ /M | 8 ×10⁶ /M | 1.1 ×10⁶ /M | 0.47 µM | 0.3 µM | Active | 36 µM | 39 µM | – | –
N=C(N)NCCNc1c2c(c(NCCN)c3sccc13)C(=O)c1ccccc1C2=O | 5 °C | 1.5 ×10⁶ /M | 12 ×10⁶ /M | 11 ×10⁶ /M | 0.8 µM | 0.1 µM | Active | 16 µM | 7 µM | – | –
N=C(N)NCCNc1c2c(c(N)c3ccsc13)C(=O)c1ccccc1C2=O | 1 °C | 0.1 ×10⁶ /M | 2.1 ×10⁶ /M | 0.5 ×10⁶ /M | 3 µM | 0.5 µM | Active | 22 µM | 21 µM | – | –
Cl.N=C(N)NCCNc1c2c(c(NCCCN)c3sccc13)C(=O)c1ccccc1C2=O | 10 °C | 5 ×10⁶ /M | 9 ×10⁶ /M | 3.7 ×10⁶ /M | 0.7 µM | 0.07 µM | Active | 10 µM | 10 µM | Active | Active
Nc1c2c(c(N)c3sccc13)C(=O)c1ccccc1C2=O | 0.1 °C | 0.01 ×10⁶ /M | 1.3 ×10⁶ /M | – | 10 µM | 33 µM | – | > 250 µM | > 250 µM | – | –
CNCCNc1c2c(c(NCCNC(=N)N)c3sccc13)C(=O)c1ccccc1C2=O | 5.1 °C | 1.5 ×10⁶ /M | 4 ×10⁶ /M | 2.5 ×10⁶ /M | 1.1 µM | 0.05 µM | – | 16 µM | 11 µM | – | –
N=C(N)NCCNc1c2c(c(N)c3sccc13)C(=O)c1ccccc1C2=O | 1 °C | 0.2 ×10⁶ /M | 1.6 ×10⁶ /M | 0.6 ×10⁶ /M | 2 µM | 0.9 µM | – | 19 µM | 16 µM | – | –
CNCCNc1c2c(c(NCCNC(=N)N)c3ccsc13)C(=O)c1ccccc1C2=O | 5.4 °C | 1.6 ×10⁶ /M | 5.5 ×10⁶ /M | 4.9 ×10⁶ /M | 0.6 µM | 0.3 µM | Active | 23 µM | 6 µM | – | –
Cl.N=C(N)NCCNc1c2c(c(NCCNC(=N)N)c3sccc13)C(=O)c1ccccc1C2=O | 12 °C | 7 ×10⁶ /M | 8 ×10⁶ /M | – | 0.7 µM | 0.08 µM | Active | 20 µM | 11 µM | Active | Active
CNCCNc1c2c(c(NCCNC)c3sccc13)C(=O)c1ccccc1C2=O.Cl | 4.3 °C | 1.1 ×10⁶ /M | 11 ×10⁶ /M | 1.6 ×10⁶ /M | 0.7 µM | 0.5 µM | Active | 0.9 µM | – | Active | Active
